Measured values taken from BindingDB's records for doi:10.1080/14756360310001612211 (Kobe Gakuin University, 2003).
“And” between values parts separate entries of the source, which are not always exact repeats. Equal entries are not always repeated.

target: Proto-oncogene tyrosine-protein kinase Src (Gallus gallus, UniProt P00523); experiment: Tyrosine Kinase Assay; details: 37 °C
From the text: Takara Universal Tyrosine Assay Kit (Takara-bio co) was used to test the synthesized compounds. This assay kit determines the inhibition activities of inhibitors against a substrate of tyrosine kinase.

Row | SMILES | IC50
1 | O=C(OCCN(N1CCCCC1)N1CCCCC1)c1cc2ccccc2n1-c1ccccc1 [Indole ester derivative, 16] | 306 µM and > 1000 µM and 279 µM
2 | CN(C)CCOC(=O)c1cc2ccccc2n1Cc1ccccc1 [Indole ester derivative, 6] | > 500 µM and 631 µM
3 | CC(CN(C)C)OC(=O)c1cc2ccccc2n1Cc1ccccc1 (stereo not drawn) [Indole ester derivative, 10] | > 1000 µM
4 | CN(C)CCOC(=O)c1cc2ccccc2n1-c1ccccc1 [Indole ester derivative, 17] | > 1000 µM
5 | CC(CN(C)C)OC(=O)c1cc2ccccc2n1-c1ccccc1 (stereo not drawn) [Indole ester derivative, 21] | > 1000 µM
6 | CCN(CC)CCOC(=O)c1cc2ccccc2[nH]1 [Indole ester derivative, 23] | > 1000 µM
7 | CCN(CC)CCOC(=O)c1cc2ccccc2n1Cc1ccccc1 [Indole ester derivative, 7] | > 1000 µM and 614 µM
8 | CC(CN(C)C)OC(=O)c1cc2ccccc2[nH]1 (stereo not drawn) [Indole ester derivative, 26] | > 500 µM
9 | CCN(CC)CCOC(=O)c1cc2ccccc2n1-c1ccccc1 [Indole ester derivative, 18] | > 1000 µM and 817 µM
10 | O=C(OCCN(n1cccc1)n1cccc1)c1cc2ccccc2[nH]1 [Indole ester derivative, 24] | 21.4 µM
11 | O=C(OCCN(n1cccc1)n1cccc1)c1cc2ccccc2n1-c1ccccc1 [Indole ester derivative, 19] | 258 µM and > 1000 µM
12 | O=C(OCCN(n1cccc1)n1cccc1)c1cc2ccccc2n1Cc1ccccc1 [Indole ester derivative, 8] | > 1000 µM and 215 µM
13 | O=C(OCCN(N1CCCCC1)N1CCCCC1)c1cc2ccccc2[nH]1 [Indole ester derivative, 27] | 830 µM and > 500 µM
